This passage reports IC50 results from US20070042975A1, “Novel indolopyrrolocarbazole derivative with antitumor activity” (priority 2003, published 2007).

The first experiment has as its system MKN-45 (Human Stomach Cancer Cells). The experiment in a line: Cell-growth suppressive effect against MKN-45 cells (WST-8 method). It counts as cell-based. The note with it: 72 h, 3 days incubation with medicament, read-out: 50% Growth Inhibiting Activity (IC50, μM) MKN-45 Cells. The method, then:
(§1) Method for Judging the Pharmaceutical Effect using Cells
(§2) Fetal calf serum (FCS) was purchased from Molgate and a DMEM medium was purchased from Asahi Techno Glass.
(§3) MKN-45, human stomach cancer cell, was purchased from the Immune Biology Laboratory. HCT 116, human colorectal cancer cell, was purchased from the American Type Culture Collection (ATCC).
(§4) Cells were suspended in a DMEM medium to which 10% of FCS were added, and a cell suspension was dispensed to a 96-well plastic plate to an extent of 1000 cells/50 microliters per well. Incubation was carried out at 37° C. for one night in 5% CO2-95% air. Each medicament was subjected to a gradient dilution using dimethyl sulfoxide or an appropriate solvent and each 50 microliters were dispensed to a microplate to which cells were sowed previously. Incubation was carried out for 3 days more at 37° C. in 5% CO2-95% air.
Background: Tetrazolium assays rely on reduction of a dye to a coloured formazan, in cell work by metabolically active cells.
The IC50 is the concentration that inhibits the measured activity by half. Consider `O=C1c2c(c3c4ccc(O)cc4n([C@@H]4O[C@H](CO)[C@@H](O)[C@H](O)[C@H]4O)c3c3[nH]c4cc(O)ccc4c23)C(=O)N1NCc1cc(CO)sc1CO` [Example 4, 6-N-(2,5-dihydroxymethyl-3-thienylmethyl)amino-12,13-dihydro-2,10-dihydroxy-12-β-D-glucopyranosyl-5H-indolo[2,3-a]pyrrolo[3,4-c]carbazole-5,7(6H)-dione], for which the 50% inhibitory concentration (IC50) was 0.0012 µM.

As to `O=C1c2c(c3c4ccc(O)cc4n([C@@H]4O[C@H](CO)[C@@H](O)[C@H](O)[C@H]4O)c3c3[nH]c4cc(O)ccc4c23)C(=O)N1NCc1cnccn1` [Example 5, 6-N-pyrazinylmethylamino-12,13-dihydro-2,10-dihydroxy-12-β-D-glucopyranosyl-5H-indolo-[2,3-a]pyrrolo[3,4-c]carbazole-5,7(6H)-dione], the IC50 was 0.0028 µM.

As for `O=C1c2c(c3c4ccc(O)cc4n([C@@H]4O[C@H](CO)[C@@H](O)[C@H](O)[C@H]4O)c3c3[nH]c4cc(O)ccc4c23)C(=O)N1NCc1ccnc2ccccc12` [Example 6, 6-N-(4-quinolinylmethylamino)-12,13-dihydro-2,10-dihydroxy-12-β-D-glucopyranosyl-5H-indolo[2,3-a]pyrrolo[3,4-c]carbazole-5,7(6H)-dione], the IC50 amounted to 0.0014 µM. Same read-out and setting: in the case of `O=C1c2c(c3c4ccc(O)cc4n([C@@H]4O[C@H](CO)[C@@H](O)[C@H](O)[C@H]4O)c3c3[nH]c4cc(O)ccc4c23)C(=O)N1NCc1cc([N+](=O)[O-])c[nH]1` [Example 10, 6-N-(4-nitro-2-1H-pyrrolylmethyl)amino-12,13-dihydro-2,10-dihydroxy-12-β-D-glucopyranosyl-5H-indolo[2,3-a]pyrrolo[3,4-c]carbazole-5,7(6H)-dione] it was 0.004 µM.

Take `O=C1c2c(c3c4ccc(O)cc4n([C@@H]4O[C@H](CO)[C@@H](O)[C@H](O)[C@H]4O)c3c3[nH]c4cc(O)ccc4c23)C(=O)N1NCc1ccc[nH]1` [Example 12, 6-N-(2-1H-pyrrolylmethyl)amino-12,13-dihydro-2,10-dihydroxy-12-β-D-glucopyranosyl-5H-indolo[2,3-a]pyrrolo[3,4-c]carbazole-5,7(6H)-dione]: the IC50 came out at 0.002 µM.

The next experiment deals with HCT-116 (Human Colorectal Cancer Cells). The experiment in a line: Cell-growth suppressive effect against HCT-116 cells (WST-8 method). It counts as cell-based. Particulars: 72 h, 3 days incubation with medicament, read-out: 50% Growth Inhibiting Activity (IC50, μM) HCT-116 Cells. The method, then: as §1, §2, §3, §4
In the case of `O=C1c2c(c3c4ccc(O)cc4n([C@@H]4O[C@H](CO)[C@@H](O)[C@H](O)[C@H]4O)c3c3[nH]c4cc(O)ccc4c23)C(=O)N1NCc1cc[nH]n1` [Example 14, 6-N-(3-1H-pyrazolylmethyl)amino-12,13-dihydro-2,10-dihydroxy-12-β-D-glucopyranosyl-5H-indolo[2,3-a]pyrrolo[3,4-c]carbazole-5,7(6H)-dione], the half-maximal inhibitory concentration (IC50) is 0.0012 µM.

On to `O=C1c2c(c3c4ccc(O)cc4n([C@@H]4O[C@H](CO)[C@@H](O)[C@H](O)[C@H]4O)c3c3[nH]c4cc(O)ccc4c23)C(=O)N1NCc1c[nH]cn1` [Example 15, 6-N-(4-1H-imidazolylmethyl)amino-12,13-dihydro-2,10-dihydroxy-12-β-D-glucopyranosyl-5H-indolo[2,3-a]pyrrolo[3,4-c]carbazole-5,7(6H)-dione], for which the IC50 was found to be 0.0016 µM.

Turning to `COC(=O)c1cccc(CNN2C(=O)c3c(c4c5ccc(O)cc5n([C@@H]5O[C@H](CO)[C@@H](O)[C@H](O)[C@H]5O)c4c4[nH]c5cc(O)ccc5c34)C2=O)n1` [Example 16, 6-N-(2-methoxycarbonyl-6-pyridylmethyl)amino-12,13-dihydro-2,10-dihydroxy-12-β-D-glucopyranosyl-5H-indolo[2,3-a]pyrrolo[3,4-c]carbazole-5,7(6H)-dione], the IC50 amounted to 0.0049 µM.

In the case of `O=C1c2c(c3c4ccc(O)cc4n([C@@H]4O[C@H](CO)[C@@H](O)[C@H](O)[C@H]4O)c3c3[nH]c4cc(O)ccc4c23)C(=O)N1OCc1ccncc1` [Example 18, 6-N-(4-pyridylmethoxy)-12,13-dihydro-2,10-dihydroxy-12-β-D-glucopyranosyl-5H-indolo-[2,3-a]pyrrolo[3,4-c]carbazole-5,7(6H)-dione], the IC50 turned out to be 0.0023 µM. The same measure, in the same setting: for `O=C1c2c(c3c4ccc(O)cc4n([C@@H]4O[C@H](CO)[C@@H](O)[C@H](O)[C@H]4O)c3c3[nH]c4cc(O)ccc4c23)C(=O)N1OCc1cccc(CO)n1` [Example 19, 6-N-(6-hydroxymethyl-2-pyridylmethoxy)-12,13-dihydro-2,10-dihydroxy-12-β-D-glucopyranosyl-5H-indolo[2,3-a]pyrrolo[3,4-c]carbazole-5,7(6H)-dione] the value was 0.0037 µM.

Take `O=C1c2c(c3c4ccc(O)cc4n([C@@H]4O[C@H](CO)[C@@H](O)[C@H](O)[C@H]4O)c3c3[nH]c4cc(O)ccc4c23)C(=O)N1OCc1ccncc1CO` [Example 30, 6-N-(3-hydroxymethyl-4-pyridylmethoxy)-12,13-dihydro-2,10-dihydroxy-12-β-D-glucopyranosyl-5H-indolo[2,3-a]pyrrolo[3,4-c]carbazole-5,7(6H)-dione]: the IC50 is 0.00076 µM. Still for that read-out and setting: in the case of `O=C1c2c(c3c4ccc(O)cc4n([C@@H]4O[C@H](CO)[C@@H](O)[C@H](O)[C@H]4O)c3c3[nH]c4cc(O)ccc4c23)C(=O)N1CCc1ccncc1` [Example 39, 6-N-(2-(4-pyridyl)ethyl)-12,13-dihydro-2,10-dihydroxy-12-β-D-glucopyranosyl-5H-indolo-[2,3-a]pyrrolo[3,4-c]carbazole-5,7(6H)-dione] it was 0.005 µM.
